Results from patent publication US20260041683A1, “Compounds with Anti-Acinetobacter Baumannii Activity” (University of Kentucky Research Foundation, priority 2022, published 2026).
Values after ≈ are worked out from the molar mass of the structure shown. “Also recorded” adds a separate entry of the source. Where two headings read alike, the source gives them in different places.

Assays:
M. smegmatis = test: MIC determination; assay type: cell-based, Mycobacterium smegmatis; settings: Mycolicibacterium smegmatis; Table 4
Y. pestis CO92 = test: microbe, parasite or virus in culture; assay type: cell-based; settings: Yersinia pestis, CO92, read-out: MIC Y. pestis CO92
[1] = tested on: preformed biofilm of Ab ATCC 19606; test: Biofilm disruption assay (crystal violet); settings: compound added after formation of biofilm
S. enterica ATCC 14028 = test: MIC determination; assay type: cell-based; settings: Salmonella enterica, ATCC14028
P. aeruginosa ATCC 27853 = test: MIC determination; assay type: cell-based; settings: Pseudomonas aeruginosa, ATCC27853; Table 5; Mueller-Hinton medium; G = P. aeruginosa ATCC 27853; read-out: MIC strain G
S. aureus ATCC 25923 = test: MIC determination; assay type: cell-based; settings: Staphylococcus aureus, ATCC25923
Ab ATCC 19606 [2] = test: Development of resistance, 15-passage MIC assay; assay type: cell-based, Acinetobacter baumannii; settings: 15 passages at ½×MIC
[3] = tested on: biofilm formed by Ab ATCC 19606; test: Biofilm prevention assay (crystal violet); settings: compound added while biofilm is forming
K. pneumoniae ATCC 27736 = test: MIC determination; assay type: cell-based; settings: Klebsiella pneumoniae, ATCC27736; Table 5; Mueller-Hinton medium; F = K. pneumoniae ATCC 27736; read-out: MIC strain F
[4] = tested on: human embryonic kidney cells (HEK-293); test: Mammalian cytotoxicity assay (resazurin); settings: HEK-293, 32 μg/mL (printed 32 g/mL for 3e), 24 h
E. cloacae ATCC 13047 = test: MIC determination; assay type: cell-based; settings: Enterobacter cloacae, ATCC13047
B. anthracis Sterne F32 = test: microbe, parasite or virus in culture; assay type: cell-based; settings: Bacillus anthracis
[5] = tested on: S. epidermidis ATCC 12228; test: MIC determination; assay type: cell-based; settings: Staphylococcus epidermidis, ATCC12228
Ab ATCC 19606 [6] = test: Time-kill curves; settings: 1×MIC and 4×MIC, up to 24 h
E. coli MC1061 = test: MIC determination; assay type: cell-based; settings: Escherichia coli; Table 5; Mueller-Hinton medium; D = E. coli MC1061; read-out: MIC strain D

How did the MIC (M. smegmatis) turn out when `O=C(NNc1ccc(Cl)cc1)c1ccc(F)cn1` [Compound 3e] was run?
Its MIC is 4 µg/mL (≈ 15.1 µM).

And the MIC (Y. pestis CO92)?
Its MIC is 8 µg/mL (≈ 30.1 µM).

And the “effect on preformed biofilm (disruption)” value [1]?
The value was “did not disrupt a preformed Ab biofilm; also recorded: did not disrupt the preformed biofilm”.

And the MIC (S. enterica ATCC 14028; Table 4, read-out: MIC S. enterica ATCC 14028)?
The MIC was 8 µg/mL (≈ 30.1 µM).

And the MIC (S. enterica ATCC 14028; Table 5, Mueller-Hinton medium, H = S. enterica ATCC 14028, read-out: MIC strain H)?
Its MIC is 64 µg/mL (≈ 241 µM).

What about the MIC (P. aeruginosa ATCC 27853) of the same compound?
The MIC was over 64 µg/mL.

What about the MIC (S. aureus ATCC 25923; Table 4, read-out: MIC S. Aureus ATCC 25923) of the same compound?
The MIC was over 16 µg/mL.

What about the MIC (S. aureus ATCC 25923; Table 5, Mueller-Hinton medium, B = S. aureus ATCC 25923, read-out: MIC strain B) of the same compound?
The MIC was over 64 µg/mL.

And the “emergence of resistance (in words)” value (Ab ATCC 19606 [2])?
Its value is “not observed even after 15 passages; also recorded: Lack of resistance”.

And the “effect on biofilm formation (prevention)” value [3]?
Its value is “biofilm formation was abolished at concentrations above MIC; also recorded: inhibited biofilm formation”.

What about the MIC (K. pneumoniae ATCC 27736) of the same compound?
Its MIC is 64 µg/mL (≈ 241 µM).

And the inhibition of growth [4]?
Its inhibition of growth is 17%.

What about the MIC (E. cloacae ATCC 13047; Table 4, read-out: MIC E. cloacae ATCC 13047) of the same compound?
The MIC was 4 µg/mL (≈ 15.1 µM).

What about the MIC (E. cloacae ATCC 13047; Table 5, Mueller-Hinton medium, E = E. cloacae ATCC 13047, read-out: MIC strain E) of the same compound?
The MIC was 16 µg/mL (≈ 60.2 µM).

And the MIC (B. anthracis Sterne F32; STERNEF32, read-out: MIC B. anthracis Sterne F32)?
Its MIC is over 16 µg/mL.

And the MIC (B. anthracis Sterne F32; STERNEF32, read-out: MIC strain A)?
The MIC was over 64 µg/mL.

And the MIC ([5]; Table 4, read-out: MIC S. epidermidis ATCC 12228)?
Its MIC is over 16 µg/mL.

And the MIC ([5]; Table 5, Mueller-Hinton medium, C = S. epidermidis ATCC 12228, read-out: MIC strain C)?
The MIC was over 64 µg/mL.

And the “bacteriostatic or bactericidal (time-kill)” value (Ab ATCC 19606 [6])?
Its value is “bacteriostatic”.

And the MIC (E. coli MC1061)?
The MIC was 16 µg/mL (≈ 60.2 µM).
